Source: patent publication US20190380978A1, “SOLID ORAL DOSAGE FORMS OF 2R,6R-HYDROXYNORKETAMINE OR DERIVATIVES THEREOF” (priority 2016, published 2019)

Experiments:
dopamine transporter = dopamine transporter (Homo sapiens, UniProt Q01959); assay: binding to dopamine transporter
Text: (§1) 2R,6R-hydroxynorketamine was investigated for binding to monoamine oxidases A and B, monoamine transporters, as well as a variety of 5HT receptors.

CYP2C19 = CYP2C19 (Homo sapiens, UniProt P33261); assay: CYP inhibition assay, CYP2C19; assay type: in vitro ADME
Text: (§2) Cytochrome P450s (CYPs) are a family of enzymes that play a primary role in the metabolism of a wide variety of drugs. 2R,6R-hydroxynorketamine was investigated for its potential to inhibit the action of 7 key CYP enzymes using an inhibition assay measuring reduction in the formation of metabolites compared to control.

[1] = test system: cryopreserved hepatocytes; assay: in vitro hepatocyte stability assay, human; assay type: in vitro ADME
Description: (§3) 2R,6R-hydroxynorketamine was investigated using an in vitro hepatocyte stability assay, during which 2R,6R-hydroxynorketamine was incubated with cryopreserved hepatocytes from 3 test species.

5-HT2A = 5-HT2A (Homo sapiens, UniProt P28223); assay: binding to 5-HT2A receptor
Text: as §1

5-HT1, Non-Selective = assay: binding to 5-HT1 receptors, non-selective
Text: as §1
An absence of interaction between 2R,6R-hydroxynorketamine and 5HT1 receptors is also of note. Rare postmarketing reports have described patients with weakness, hyperreflexia, and incoordination following the use of an SSRI and the 5HT1 agonist, sumatriptan. The possibility of such interactions should also be considered if other 5HT1 agonists are to be used in combination with SSRIs.

[2] = test system: α-amino-3-hydroxy-5-methyl-4-isoxazolepropionic acid receptor (AMPAR)-mediated currents; assay: in vitro electrophysiological experiments (fEPSPs)
Description: The free (unbound) concentration of 2R,6R-hydroxynorketamine producing pharmacodynamics activity in the brain is estimated to be approximately 10 μM.

CYP2C8 = biological target: T1, CYP2C8 (Homo sapiens, UniProt P10632); assay: CYP inhibition assay, CYP2C8; assay type: in vitro ADME
T1 sequence (P10632 1-490): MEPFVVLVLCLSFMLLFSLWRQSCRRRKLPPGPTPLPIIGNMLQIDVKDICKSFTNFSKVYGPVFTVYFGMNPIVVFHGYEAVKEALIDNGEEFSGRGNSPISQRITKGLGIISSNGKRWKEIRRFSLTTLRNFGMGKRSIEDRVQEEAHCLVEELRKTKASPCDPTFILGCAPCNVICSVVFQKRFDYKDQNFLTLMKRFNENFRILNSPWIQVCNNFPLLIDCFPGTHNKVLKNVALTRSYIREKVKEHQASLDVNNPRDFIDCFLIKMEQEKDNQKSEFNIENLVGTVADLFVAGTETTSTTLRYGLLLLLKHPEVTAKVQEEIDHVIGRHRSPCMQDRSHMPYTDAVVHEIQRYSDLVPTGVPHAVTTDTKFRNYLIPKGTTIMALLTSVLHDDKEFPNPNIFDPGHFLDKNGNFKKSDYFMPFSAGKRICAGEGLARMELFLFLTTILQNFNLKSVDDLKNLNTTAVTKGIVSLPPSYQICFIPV
Text: as §2

in vitro = conditions: human
CYP3A4 = CYP3A4 (Homo sapiens, UniProt P08684); assay: CYP inhibition assay, CYP3A4 (substrates midazolam and testosterone); assay type: in vitro ADME; conditions: for inhibition at 0.4 µM / inhibition at 1 µM / inhibition at 4 µM / inhibition at 10 µM / inhibition at 40 µM / inhibition at 100 µM: human
Text: as §2

[3] = in vitro hepatocyte stability assay, dog; assay type: in vitro ADME; conditions: cryopreserved hepatocytes
Description: as §3

[4] = in vitro hepatocyte stability assay, rat; assay type: in vitro ADME; conditions: cryopreserved hepatocytes
Description: as §3

MAO-A = MAO-A (Homo sapiens, UniProt P21397); assay: binding to monoamine oxidase A
Text: as §1

UGT2B7 = UGT2B7 (Homo sapiens, UniProt P16662); assay: UGT inhibition assay, UGT2B7; assay type: in vitro ADME
5-HT1B = 5-HT1B (Homo sapiens, UniProt P28222); assay: binding to 5-HT1B receptor
Text: as §1

[5] = probe midazolam, Substrate = midazolam
[6] = probe testosterone, Substrate = testosterone

Chain of 5-HT1B (P28222 whole entry, species assumed): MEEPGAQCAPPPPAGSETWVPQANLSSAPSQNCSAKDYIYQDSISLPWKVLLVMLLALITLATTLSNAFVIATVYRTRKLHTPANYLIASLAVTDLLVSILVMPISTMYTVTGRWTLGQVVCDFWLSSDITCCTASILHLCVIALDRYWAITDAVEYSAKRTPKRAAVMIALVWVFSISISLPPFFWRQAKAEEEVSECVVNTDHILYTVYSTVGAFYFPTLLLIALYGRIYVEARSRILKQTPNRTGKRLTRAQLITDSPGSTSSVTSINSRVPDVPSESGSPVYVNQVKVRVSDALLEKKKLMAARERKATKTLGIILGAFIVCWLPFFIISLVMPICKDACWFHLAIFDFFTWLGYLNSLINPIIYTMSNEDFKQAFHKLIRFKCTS
Chain of 5-HT2A (P28223 whole entry): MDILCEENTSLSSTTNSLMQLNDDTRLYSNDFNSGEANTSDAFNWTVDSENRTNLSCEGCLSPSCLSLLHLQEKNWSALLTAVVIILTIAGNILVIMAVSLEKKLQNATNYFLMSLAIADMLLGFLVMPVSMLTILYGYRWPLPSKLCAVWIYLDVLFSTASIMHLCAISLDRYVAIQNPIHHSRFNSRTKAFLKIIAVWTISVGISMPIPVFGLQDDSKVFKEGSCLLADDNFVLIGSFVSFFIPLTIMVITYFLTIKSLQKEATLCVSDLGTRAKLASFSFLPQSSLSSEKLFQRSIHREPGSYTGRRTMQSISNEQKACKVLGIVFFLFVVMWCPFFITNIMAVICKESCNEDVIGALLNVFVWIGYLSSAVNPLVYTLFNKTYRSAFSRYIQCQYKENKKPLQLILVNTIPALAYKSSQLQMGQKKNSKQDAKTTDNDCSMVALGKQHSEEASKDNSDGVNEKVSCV
Chain of CYP3A4 (P08684 whole entry): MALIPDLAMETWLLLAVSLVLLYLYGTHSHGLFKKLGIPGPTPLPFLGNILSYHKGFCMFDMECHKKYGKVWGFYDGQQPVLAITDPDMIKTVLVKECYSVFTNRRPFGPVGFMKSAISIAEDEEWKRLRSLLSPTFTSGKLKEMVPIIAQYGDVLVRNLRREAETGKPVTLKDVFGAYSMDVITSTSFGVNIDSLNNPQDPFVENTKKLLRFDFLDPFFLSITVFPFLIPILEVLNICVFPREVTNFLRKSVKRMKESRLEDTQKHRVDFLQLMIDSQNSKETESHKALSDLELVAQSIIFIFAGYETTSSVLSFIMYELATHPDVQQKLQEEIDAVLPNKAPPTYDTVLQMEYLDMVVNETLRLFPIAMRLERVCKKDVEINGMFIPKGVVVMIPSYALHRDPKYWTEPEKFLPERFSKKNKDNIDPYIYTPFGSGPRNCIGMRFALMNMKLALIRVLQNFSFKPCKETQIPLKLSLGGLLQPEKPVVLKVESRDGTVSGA
Chain of CYP2C19 (P33261 whole entry): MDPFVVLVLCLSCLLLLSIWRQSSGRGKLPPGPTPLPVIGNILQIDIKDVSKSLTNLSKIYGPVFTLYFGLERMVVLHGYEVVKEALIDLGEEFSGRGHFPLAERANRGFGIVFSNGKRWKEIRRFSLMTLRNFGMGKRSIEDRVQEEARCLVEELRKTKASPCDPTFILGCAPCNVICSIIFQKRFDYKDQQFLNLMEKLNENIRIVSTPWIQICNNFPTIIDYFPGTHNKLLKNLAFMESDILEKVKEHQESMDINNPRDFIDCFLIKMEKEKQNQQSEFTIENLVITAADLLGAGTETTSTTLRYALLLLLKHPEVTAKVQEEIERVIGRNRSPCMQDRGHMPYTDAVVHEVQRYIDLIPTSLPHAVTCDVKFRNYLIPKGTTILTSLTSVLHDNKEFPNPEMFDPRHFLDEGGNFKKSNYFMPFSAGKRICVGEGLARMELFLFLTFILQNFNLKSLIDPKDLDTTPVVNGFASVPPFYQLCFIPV
Chain of dopamine transporter (Q01959 whole entry): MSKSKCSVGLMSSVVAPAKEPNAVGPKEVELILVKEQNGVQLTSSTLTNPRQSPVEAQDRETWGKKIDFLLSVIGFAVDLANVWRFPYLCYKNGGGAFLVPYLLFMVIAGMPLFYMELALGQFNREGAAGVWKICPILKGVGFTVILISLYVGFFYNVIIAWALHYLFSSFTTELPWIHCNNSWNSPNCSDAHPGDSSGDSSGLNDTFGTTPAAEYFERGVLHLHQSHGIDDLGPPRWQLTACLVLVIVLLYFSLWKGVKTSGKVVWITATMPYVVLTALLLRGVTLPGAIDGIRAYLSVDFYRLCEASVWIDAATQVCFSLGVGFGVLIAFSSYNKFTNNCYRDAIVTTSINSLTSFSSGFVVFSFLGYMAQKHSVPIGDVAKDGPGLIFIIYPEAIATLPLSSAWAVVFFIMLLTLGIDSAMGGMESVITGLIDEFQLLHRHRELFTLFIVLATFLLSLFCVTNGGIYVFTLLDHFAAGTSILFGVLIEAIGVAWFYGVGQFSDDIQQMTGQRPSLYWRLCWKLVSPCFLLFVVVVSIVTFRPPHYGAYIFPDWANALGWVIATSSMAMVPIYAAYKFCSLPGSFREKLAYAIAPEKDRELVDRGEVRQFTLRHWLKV
Chain of MAO-A (P21397 whole entry, species assumed): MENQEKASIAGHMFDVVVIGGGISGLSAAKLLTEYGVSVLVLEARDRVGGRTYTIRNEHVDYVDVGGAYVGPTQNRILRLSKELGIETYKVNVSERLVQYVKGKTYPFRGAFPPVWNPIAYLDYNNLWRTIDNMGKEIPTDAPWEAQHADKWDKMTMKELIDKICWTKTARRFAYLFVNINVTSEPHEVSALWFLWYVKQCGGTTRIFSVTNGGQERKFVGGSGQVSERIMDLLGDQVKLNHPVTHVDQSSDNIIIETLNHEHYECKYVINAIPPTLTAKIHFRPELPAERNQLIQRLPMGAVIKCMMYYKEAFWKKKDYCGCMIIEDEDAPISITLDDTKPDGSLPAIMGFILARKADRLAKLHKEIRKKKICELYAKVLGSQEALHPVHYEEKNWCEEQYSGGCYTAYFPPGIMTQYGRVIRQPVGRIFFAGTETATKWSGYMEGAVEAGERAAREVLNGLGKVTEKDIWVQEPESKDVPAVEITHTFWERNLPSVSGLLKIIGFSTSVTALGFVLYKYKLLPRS
Chain of UGT2B7 (P16662 24-529): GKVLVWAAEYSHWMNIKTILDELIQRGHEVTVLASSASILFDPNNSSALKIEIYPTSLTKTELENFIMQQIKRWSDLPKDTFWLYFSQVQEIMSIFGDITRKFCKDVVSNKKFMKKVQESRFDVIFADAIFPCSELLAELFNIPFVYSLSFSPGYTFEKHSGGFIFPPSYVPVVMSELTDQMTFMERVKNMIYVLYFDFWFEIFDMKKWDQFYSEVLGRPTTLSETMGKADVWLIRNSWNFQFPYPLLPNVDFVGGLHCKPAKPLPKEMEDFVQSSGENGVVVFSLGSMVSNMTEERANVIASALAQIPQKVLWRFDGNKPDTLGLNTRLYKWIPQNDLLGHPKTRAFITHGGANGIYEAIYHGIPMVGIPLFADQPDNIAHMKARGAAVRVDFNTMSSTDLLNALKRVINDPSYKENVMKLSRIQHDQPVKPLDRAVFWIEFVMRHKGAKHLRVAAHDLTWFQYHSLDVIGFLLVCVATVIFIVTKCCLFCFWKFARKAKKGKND

N[C@@]1(c2ccccc2Cl)CCC[C@@H](O)C1=O [2R,6R-hydroxynorketamine]
% Inhibition of Control Specific Binding (dopamine transporter): 11% | % of Control Specific Binding (dopamine transporter): 87.2% | activity at dopamine transporters (dopamine transporter): nor activity at dopamine transporters | inhibition of CYP2C19 (CYP2C19): did not inhibit | inhibition at 0.4 µM (CYP2C19; human, 0.4 μM): -2.01% | inhibition at 1 µM (CYP2C19; human, 1 μM): -1.66% | inhibition at 4 µM (CYP2C19; human, 4 μM): 1.85% | inhibition at 10 µM (CYP2C19; human, 10 μM): 6.69% | inhibition at 40 µM (CYP2C19; human, 40 μM): 8.25% | inhibition at 100 µM (CYP2C19; human, 100 μM): 16.1% | CLint ([1]; Human hepatocytes): −1.07 gL/min/10^6 cells | hepatic clearance in humans ([1]; human hepatocyte stability assay): does not undergo hepatic clearance | % Inhibition of Control Specific Binding (5-HT2A): 0% | % of Control Specific Binding (5-HT2A): 103.8% | binding to 5HT2A receptor subtype (5-HT2A): does not bind | % Inhibition of Control Specific Binding (5-HT1, Non-Selective): −9% | % of Control Specific Binding (5-HT1, Non-Selective): 105.4% | binding to 5HT1 receptors (5-HT1, Non-Selective): does not bind | field excitatory postsynaptic potentials (fEPSPs) ([2]; 10 μM, in vitro electrophysiology): increase | free (unbound) concentration producing pharmacodynamics activity in the brain ([2]; estimated): approximately 10 μM | inhibition of CYP2C8 (CYP2C8): did not inhibit | inhibition at 0.4 µM (CYP2C8; human, 0.4 μM): 5.63% | inhibition at 1 µM (CYP2C8; human, 1 μM): 4.91% | inhibition at 4 µM (CYP2C8; human, 4 μM): 12.5% | inhibition at 10 µM (CYP2C8; human, 10 μM): 8.33% | inhibition at 40 µM (CYP2C8; human, 40 μM): 8.35% | inhibition at 100 µM (CYP2C8; human, 100 μM): 2.08% | recovery (in vitro; Caco-2, Direction = A2B Mean % Recovery, Caco-2, A2B): 98.9% | Papp A→B (in vitro; Caco-2, Direction = A2B Mean Papp, Caco-2, A2B, mean, n 2): 45.7 ×10⁻⁶ cm/s | Papp A→B (in vitro; Caco-2, Direction = A2B Papp Replicate 1, Caco-2, A2B, replicate 1): 49.1 ×10⁻⁶ cm/s | Papp A→B (in vitro; Caco-2, Direction = A2B Papp Replicate 2, Caco-2, A2B, replicate 2): 42.3 ×10⁻⁶ cm/s | recovery (in vitro; Caco-2, Direction = B2A Mean % Recovery, Caco-2, B2A): 103% | Papp B→A (in vitro; Caco-2, Direction = B2A Mean Papp, Caco-2, B2A, mean, n 2): 50.7 ×10⁻⁶ cm/s | Papp B→A (in vitro; Caco-2, Direction = B2A Papp Replicate 1, Caco-2, B2A, replicate 1): 52.8 ×10⁻⁶ cm/s | Papp B→A (in vitro; Caco-2, Direction = B2A Papp Replicate 2, Caco-2, B2A, replicate 2): 48.5 ×10⁻⁶ cm/s | efflux ratio (in vitro; Caco-2, Efflux Ratio (Mean Papp B2A/Mean Papp A2B), Caco-2, without inhibitor): < 2 | inhibition at 0.4 µM (CYP3A4; [5]): 11.5% | inhibition at 1 µM (CYP3A4; [5]): 8.44% | inhibition at 4 µM (CYP3A4; [5]): 15.7% | inhibition at 10 µM (CYP3A4; [5]): 25.7% | inhibition at 40 µM (CYP3A4; [5]): 43.7% | inhibition at 100 µM (CYP3A4; [5]): 57.5% | inhibition at 0.4 µM (CYP3A4; [6]): 1.62% | inhibition at 1 µM (CYP3A4; [6]): -0.509% | inhibition at 4 µM (CYP3A4; [6]): 7.04% | inhibition at 10 µM (CYP3A4; [6]): 12.4% | inhibition at 40 µM (CYP3A4; [6]): 35.2% | inhibition at 100 µM (CYP3A4; [6]): 53.4% | IC50 (CYP3A4; substrate midazolam): 69 µM | IC50 (CYP3A4; substrate testosterone): 81 µM | half-life [3]: 4.9 h | hepatocyte CLint [3]: 4.72 µL/min/1e6 cells | half-life [4]: 0.418 h | hepatocyte CLint [4]: 55.2 µL/min/1e6 cells | % Inhibition of Control Specific Binding (MAO-A): −5% | % of Control Specific Binding (MAO-A): 97.7% | inhibition of UGT2B7 (UGT2B7): does not inhibit | % Inhibition of Control Specific Binding (5-HT1B): −2% | % of Control Specific Binding (5-HT1B): 102.7% | binding to 5HT1B receptor subtype (5-HT1B): does not bind | substrate of p-gp or Breast Cancer Resistance Protein (BCRP) efflux transporters (Caco-2; Caco-2): not a substrate | permeability (Caco-2; Caco-2 permeability assay): high
